Experimental data published in article PMC8555766, “Paradoxical Potentiation of Acid-Sensing Ion Channel 3 (ASIC3) by Amiloride via Multiple Mechanisms and Sites Within the Channel” (Frontiers in Physiology, 2021).
Changes are numbered by the printed parent chain.

Assays:
[1] = biological target: T1, ASIC3 G445C (Rattus norvegicus, UniProt O35240, G445C); assay: whole-cell patch clamp, block of pH 6-evoked currents; format: cell-based
T1 construct: rASIC3 G445C co-expressed with wildtype ASIC3 at a 10:1 ratio in CHO-K1 cells; with wildtype ASIC3 (heteromultimeric channels)
T1 sequence (O35240 1-533 G445C): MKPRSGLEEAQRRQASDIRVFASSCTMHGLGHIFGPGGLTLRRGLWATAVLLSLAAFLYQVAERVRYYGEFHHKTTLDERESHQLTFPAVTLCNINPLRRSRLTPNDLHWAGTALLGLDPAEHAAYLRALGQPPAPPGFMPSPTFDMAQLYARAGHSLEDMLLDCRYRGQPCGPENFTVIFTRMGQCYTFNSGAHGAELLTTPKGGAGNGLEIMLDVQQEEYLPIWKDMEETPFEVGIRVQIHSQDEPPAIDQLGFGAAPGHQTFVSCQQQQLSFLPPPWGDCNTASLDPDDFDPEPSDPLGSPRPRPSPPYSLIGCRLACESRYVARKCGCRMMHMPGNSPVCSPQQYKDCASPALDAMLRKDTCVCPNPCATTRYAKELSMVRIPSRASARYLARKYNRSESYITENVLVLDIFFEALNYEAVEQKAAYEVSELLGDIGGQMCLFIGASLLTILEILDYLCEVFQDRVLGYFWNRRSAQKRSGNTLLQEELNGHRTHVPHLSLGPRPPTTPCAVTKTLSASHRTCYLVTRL
Source text: whole-cell patch clamp, block of pH 6-evoked currents on ASIC3 G445C | G445C mutation partially blunted the inhibitory action of amiloride on ASIC3 currents when compared to wildtype ASIC3 channels

[2] = biological target: T2, Acid-Sensing Ion Channel 3 (ASIC3) (Rattus norvegicus, UniProt O35240); assay: as above; format: cell-based
T2 construct: Rat ASIC3 in pMT3 vector, expressed in CHO-K1 cells
T2 sequence (O35240 1-533): T1 sequence (O35240 1-533 G445C) with C445G

Structure (SMILES): N=C(N)NC(=O)c1nc(Cl)c(N)nc1N [amiloride]
- IC50 [1]: 17.3 µM
- IC50 [2]: 18.6 µM
